Experimental data published in ChEMBL document CHEMBL5584224, “Recent advances in c-Met-based dual inhibitors in the treatment of cancers” (Eur J Med Chem, 2024).
Each block holds one compound with its values, some of them ahead of it.

Columns and labels:
NCI-H3122 = test: Antiproliferative activity against human NCI-H3122 cells assessed as reduction in cell viability incubated for 48 hrs by MTT assay; type: functional, cell-based; settings: NCI-H3122, 48 h
[1] = Inhibition of TrxR (unknown origin); parameters: species or system Homo sapiens
[2] = target: Hepatocyte growth factor receptor (Homo sapiens, UniProt P08581)
Hepatocyte growth factor receptor, sequence (P08581 whole entry): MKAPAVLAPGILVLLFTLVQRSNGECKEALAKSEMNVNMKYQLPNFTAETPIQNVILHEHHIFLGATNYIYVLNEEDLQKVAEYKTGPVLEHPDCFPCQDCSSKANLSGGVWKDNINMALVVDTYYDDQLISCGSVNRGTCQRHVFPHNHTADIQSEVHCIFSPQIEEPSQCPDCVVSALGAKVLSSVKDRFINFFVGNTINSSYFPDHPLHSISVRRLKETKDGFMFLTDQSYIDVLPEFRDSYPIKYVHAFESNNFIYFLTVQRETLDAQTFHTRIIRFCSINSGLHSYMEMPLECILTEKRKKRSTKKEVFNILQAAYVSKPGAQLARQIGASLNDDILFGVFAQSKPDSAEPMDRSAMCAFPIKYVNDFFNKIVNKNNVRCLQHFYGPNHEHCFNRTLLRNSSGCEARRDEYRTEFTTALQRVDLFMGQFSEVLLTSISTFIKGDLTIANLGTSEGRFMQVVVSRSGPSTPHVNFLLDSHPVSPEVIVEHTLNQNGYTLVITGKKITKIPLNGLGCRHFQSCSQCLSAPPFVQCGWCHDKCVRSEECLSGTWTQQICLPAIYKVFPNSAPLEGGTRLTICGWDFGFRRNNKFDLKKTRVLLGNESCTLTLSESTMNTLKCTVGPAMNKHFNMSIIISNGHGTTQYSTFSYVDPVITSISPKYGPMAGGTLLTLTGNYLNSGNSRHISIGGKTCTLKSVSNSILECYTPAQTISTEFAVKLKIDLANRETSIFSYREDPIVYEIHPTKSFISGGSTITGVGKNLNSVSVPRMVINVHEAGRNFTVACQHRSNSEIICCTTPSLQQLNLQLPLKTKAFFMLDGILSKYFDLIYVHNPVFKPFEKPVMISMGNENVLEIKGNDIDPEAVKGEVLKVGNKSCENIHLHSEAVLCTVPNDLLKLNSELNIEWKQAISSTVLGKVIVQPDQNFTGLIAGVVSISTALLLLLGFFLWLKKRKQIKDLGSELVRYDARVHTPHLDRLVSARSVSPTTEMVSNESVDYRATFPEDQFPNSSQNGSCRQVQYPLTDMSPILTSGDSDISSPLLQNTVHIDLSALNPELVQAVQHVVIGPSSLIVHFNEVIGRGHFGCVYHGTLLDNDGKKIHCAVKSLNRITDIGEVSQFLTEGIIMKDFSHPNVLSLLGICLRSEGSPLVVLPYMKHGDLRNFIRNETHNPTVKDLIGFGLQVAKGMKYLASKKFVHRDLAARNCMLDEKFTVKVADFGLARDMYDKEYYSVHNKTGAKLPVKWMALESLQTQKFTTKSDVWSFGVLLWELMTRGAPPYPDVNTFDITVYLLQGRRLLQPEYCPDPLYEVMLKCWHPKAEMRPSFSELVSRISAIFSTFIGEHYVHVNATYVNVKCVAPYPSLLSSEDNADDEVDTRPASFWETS
Description: Inhibition of c-MET (unknown origin)

HCCLM3 = test: Cytotoxicity against human HCCLM3 cells assessed as cell growth inhibition incubated for 48 hrs by MTT assay; type: functional, cell-based; settings: HCCLM3, 48 h
HCC827 = test: Antiproliferative activity against human HCC827 cells; type: functional, cell-based
[3] = target: ALK tyrosine kinase receptor (Homo sapiens, UniProt Q9UM73); test: Inhibition of ALK (unknown origin)
ALK tyrosine kinase receptor, sequence (Q9UM73 whole entry): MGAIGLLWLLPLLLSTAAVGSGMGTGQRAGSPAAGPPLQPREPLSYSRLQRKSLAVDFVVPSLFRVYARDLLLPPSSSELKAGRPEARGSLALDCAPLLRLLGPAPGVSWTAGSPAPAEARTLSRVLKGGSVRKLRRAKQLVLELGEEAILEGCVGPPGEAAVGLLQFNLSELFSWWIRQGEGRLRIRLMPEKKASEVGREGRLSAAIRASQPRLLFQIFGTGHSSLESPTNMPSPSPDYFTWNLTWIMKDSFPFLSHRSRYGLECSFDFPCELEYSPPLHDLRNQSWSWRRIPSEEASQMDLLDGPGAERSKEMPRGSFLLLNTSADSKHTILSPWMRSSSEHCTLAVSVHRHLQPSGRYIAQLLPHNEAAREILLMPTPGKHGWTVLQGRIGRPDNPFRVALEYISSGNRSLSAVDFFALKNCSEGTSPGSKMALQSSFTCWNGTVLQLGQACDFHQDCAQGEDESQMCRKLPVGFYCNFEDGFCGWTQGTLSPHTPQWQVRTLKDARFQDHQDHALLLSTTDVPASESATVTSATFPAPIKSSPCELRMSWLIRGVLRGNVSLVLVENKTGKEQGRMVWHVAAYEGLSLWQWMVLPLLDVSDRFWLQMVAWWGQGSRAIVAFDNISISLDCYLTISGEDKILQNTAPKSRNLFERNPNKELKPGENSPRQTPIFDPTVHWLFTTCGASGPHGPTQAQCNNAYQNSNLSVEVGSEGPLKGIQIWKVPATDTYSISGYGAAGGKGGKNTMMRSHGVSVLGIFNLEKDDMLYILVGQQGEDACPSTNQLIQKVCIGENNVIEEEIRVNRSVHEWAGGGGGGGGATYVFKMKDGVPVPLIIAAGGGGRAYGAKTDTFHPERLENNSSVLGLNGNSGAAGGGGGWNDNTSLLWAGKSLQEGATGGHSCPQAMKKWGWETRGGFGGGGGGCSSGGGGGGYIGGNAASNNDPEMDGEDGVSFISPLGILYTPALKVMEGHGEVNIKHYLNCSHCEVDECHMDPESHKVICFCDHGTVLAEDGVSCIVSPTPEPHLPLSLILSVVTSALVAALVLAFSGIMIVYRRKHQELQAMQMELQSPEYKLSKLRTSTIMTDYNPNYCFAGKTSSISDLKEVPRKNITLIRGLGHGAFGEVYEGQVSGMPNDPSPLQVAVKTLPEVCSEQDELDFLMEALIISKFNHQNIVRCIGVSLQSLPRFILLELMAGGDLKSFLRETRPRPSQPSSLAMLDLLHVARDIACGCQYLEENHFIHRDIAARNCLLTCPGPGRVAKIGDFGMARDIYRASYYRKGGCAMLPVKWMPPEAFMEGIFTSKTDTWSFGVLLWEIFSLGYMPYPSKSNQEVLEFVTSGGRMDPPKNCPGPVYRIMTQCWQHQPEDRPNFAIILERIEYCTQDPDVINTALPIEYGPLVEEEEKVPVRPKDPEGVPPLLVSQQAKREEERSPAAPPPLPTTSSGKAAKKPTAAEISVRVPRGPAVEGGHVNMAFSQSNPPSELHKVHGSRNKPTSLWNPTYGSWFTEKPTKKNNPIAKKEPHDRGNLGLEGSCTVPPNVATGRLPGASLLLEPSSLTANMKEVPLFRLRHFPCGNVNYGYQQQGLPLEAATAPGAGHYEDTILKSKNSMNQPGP

A-431 = test: Antiproliferative activity against human A-431 cells assessed as reduction in cell viability incubated for 24 hrs by MTT assay; type: functional, cell-based; settings: A-431, 24 h
NCI-H1975 = test: Antiproliferative activity against human NCI-H1975 cells assessed as reduction in cell viability incubated for 48 hrs by MTT assay; type: functional, cell-based; settings: NCI-H1975, 48 h
A549 [4] = test: Antiproliferative activity against human A549 cells assessed as reduction in cell viability incubated for 72 hrs by MTT assay; type: functional, cell-based; settings: A549, 72 h
PC-9 = test: Antiproliferative activity against human PC-9 cells assessed as reduction in cell growth incubated for 72 hrs by MTT assay; type: functional, cell-based; settings: PC-9, 72 h
[5] = target: Prostaglandin G/H synthase 2 (Homo sapiens, UniProt P35354); test: Inhibition of COX-2 (unknown origin)
Prostaglandin G/H synthase 2, sequence (P35354 whole entry): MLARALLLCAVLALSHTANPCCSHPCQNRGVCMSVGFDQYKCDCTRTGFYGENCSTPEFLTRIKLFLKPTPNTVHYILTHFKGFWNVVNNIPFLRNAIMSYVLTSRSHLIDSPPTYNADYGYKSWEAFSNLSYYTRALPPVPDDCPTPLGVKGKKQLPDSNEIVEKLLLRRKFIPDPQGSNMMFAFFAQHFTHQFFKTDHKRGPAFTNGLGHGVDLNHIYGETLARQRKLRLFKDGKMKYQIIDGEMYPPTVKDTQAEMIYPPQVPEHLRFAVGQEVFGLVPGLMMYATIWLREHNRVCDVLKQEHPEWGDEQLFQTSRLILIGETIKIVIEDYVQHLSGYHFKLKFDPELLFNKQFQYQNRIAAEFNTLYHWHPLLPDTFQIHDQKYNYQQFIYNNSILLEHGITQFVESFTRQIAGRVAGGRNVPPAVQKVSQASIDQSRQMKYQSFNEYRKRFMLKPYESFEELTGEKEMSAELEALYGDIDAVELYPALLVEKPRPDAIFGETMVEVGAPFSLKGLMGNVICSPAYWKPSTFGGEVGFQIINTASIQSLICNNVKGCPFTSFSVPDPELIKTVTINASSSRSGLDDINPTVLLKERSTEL

MCF7 = test: Antiproliferative activity against human MCF7 cells assessed as reduction in cell viability incubated for 24 hrs by MTT assay; type: functional, cell-based; settings: MCF7, 24 h
HT-29 = test: Antiproliferative activity against human HT-29 cells assessed as reduction in cell viability incubated for 24 hrs by MTT assay; type: functional, cell-based; settings: HT-29, 24 h
MDA-MB-231 = test: Antiproliferative activity against human MDA-MB-231 cells assessed as reduction in cell viability incubated for 24 hrs by MTT assay; type: functional, cell-based; settings: MDA-MB-231, 24 h
A549 [6] = test: Antiproliferative activity against human A549 cells assessed as reduction in cell viability incubated for 24 hrs by MTT assay; type: functional, cell-based; settings: A549, 24 h
COLO 205 = test: Antiproliferative activity against human COLO 205 cells assessed as reduction in cell viability incubated for 24 hrs by MTT assay; type: functional, cell-based; settings: COLO 205, 24 h
MHCC97H = test: Antiproliferative activity against human MHCC97H cells assessed as cell growth inhibition incubated for 48 hrs by MTT assay; type: functional, cell-based
MKN-45 = test: Antiproliferative activity against human MKN-45 cells assessed as cell growth inhibition incubated for 48 hrs by MTT assay; type: functional, cell-based; settings: MKN-45, 48 h
[7] = target: T1, Tyrosine-protein kinase receptor UFO (Homo sapiens, UniProt P30530); test: Inhibition of AXL (unknown origin)
T1 sequence (P30530 whole entry): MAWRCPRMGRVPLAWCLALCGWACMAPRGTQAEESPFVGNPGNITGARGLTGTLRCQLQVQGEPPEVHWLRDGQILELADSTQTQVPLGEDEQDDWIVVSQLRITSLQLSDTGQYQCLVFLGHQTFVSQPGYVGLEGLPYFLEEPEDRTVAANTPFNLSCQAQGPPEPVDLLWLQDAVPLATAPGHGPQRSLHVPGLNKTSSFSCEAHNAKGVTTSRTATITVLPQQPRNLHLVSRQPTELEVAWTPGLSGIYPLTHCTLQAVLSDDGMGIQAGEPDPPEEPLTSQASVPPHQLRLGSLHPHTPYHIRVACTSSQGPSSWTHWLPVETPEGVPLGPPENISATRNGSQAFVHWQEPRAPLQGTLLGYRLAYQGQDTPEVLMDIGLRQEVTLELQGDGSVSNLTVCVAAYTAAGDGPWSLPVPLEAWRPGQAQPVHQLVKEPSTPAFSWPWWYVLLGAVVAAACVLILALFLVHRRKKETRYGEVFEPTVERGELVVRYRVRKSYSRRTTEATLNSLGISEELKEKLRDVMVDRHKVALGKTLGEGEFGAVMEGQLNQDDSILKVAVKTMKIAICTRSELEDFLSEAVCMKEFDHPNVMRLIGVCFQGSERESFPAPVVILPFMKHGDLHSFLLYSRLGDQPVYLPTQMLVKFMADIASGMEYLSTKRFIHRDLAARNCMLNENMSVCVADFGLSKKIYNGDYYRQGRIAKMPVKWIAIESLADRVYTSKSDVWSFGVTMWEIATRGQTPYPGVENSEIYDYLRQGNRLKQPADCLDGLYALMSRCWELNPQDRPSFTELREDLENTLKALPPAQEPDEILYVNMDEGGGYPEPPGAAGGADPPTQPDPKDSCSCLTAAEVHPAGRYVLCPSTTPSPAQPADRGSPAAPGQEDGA

Compound: O=C(Nc1cccc(-c2nc(-c3ccc(NC(=O)c4cccnc4)cc3Cl)no2)c1)Nc1ccc(NC(=O)C2CC2)c(C(F)(F)F)c1
- IC50 [1]: 500 nM

Compound: CN(C)CCC[Se]c1cnc(-c2cccc(Cn3nc(-c4cccc(C#N)c4)ccc3=O)c2)nc1
- IC50 (HCCLM3): 13 nM

Compound: c1coc(COCC2Cc3cn4ncnc(-c5cnn(C6CCNCC6)c5)c4c3C2)c1 (stereo not drawn)
- IC50 [3]: 0.33 nM
- IC50 (A-431): 699 nM
- IC50 (NCI-H1975): 1.3 nM

Compound: C=CC(=O)Nc1cc2c(Oc3ccc(NC(=O)c4c(C)n(C)n(-c5ccccc5)c4=O)cc3F)ncnc2cc1OC
- IC50 (A549 [4]): 1060 nM
- IC50 (PC-9): 1050 nM

Compound: O=C(/C=C/c1ccc(F)cc1)c1cccc(NC(=O)c2ccc(Cl)cc2)c1
- IC50 [5]: 2430 nM
- IC50 (MCF7): 7070 nM
- IC50 (HT-29): 13600 nM
- IC50 (MDA-MB-231): 43000 nM
- IC50 (A549 [6]): 43800 nM
- IC50 (COLO 205): < 100 nM
- IC50 [2]: 7900 nM

Compound: CC(C)N1CCC(CC#Cc2c(Oc3ccc(NC(=O)c4cn(C(C)C)c(=O)n(-c5ccc(F)cc5)c4=O)cc3F)ccnc2N)CC1
- IC50 (HCC827): < 100 nM

Compound: COCCN1CCC(C#Cc2c(Oc3ccc(NC(=O)c4cn(C(C)C)c(=O)n(-c5ccc(F)cc5)c4=O)cc3F)ccnc2N)CC1
- IC50 (HCC827): < 100 nM

Compound: [2H][C@@](C)(c1cccc(-c2ncc(OCC3CCN(C)CC3)cn2)c1)n1nc(-c2cccc(C#N)c2)ccc1=O
- IC50 (MHCC97H): 4.3 nM
- IC50 (MKN-45): 1 nM

Compound: CC(C)n1cc(C(=O)Nc2ccc(Oc3ccnc(N)c3C#CC(C)(C)N3CCOCC3)c(F)c2)c(=O)n(-c2ccc(F)cc2)c1=O
- IC50 (HCC827): < 100 nM

Compound: O=C(Nc1ccc(F)cc1)C1(C(=O)Nc2ccc(Oc3ncnn4cc(-c5cnn(CCO)c5)cc34)cc2)CC1
- IC50 [7]: 8.6 nM

Compound: Cn1cc(-c2cc3c(Oc4ccc(NC(=O)C5(C(=O)Nc6ccc(F)cc6)CC5)cc4)ncnn3c2)cn1
- IC50 [7]: 26 nM

The next lines start with the values.

- IC50 (NCI-H3122): 77 nM
Compound: C[C@@H](Oc1cc(C(=O)Nc2ccc(C(=O)N3CCN(C)CC3)cc2)nnc1N)c1c(Cl)ccc(F)c1Cl

- IC50 [2]: 14.6 nM
Compound: Fc1ccc(Cl)c(Sc2n[nH]c3ncc(-c4cnn(C5CCNCC5)c4)cc23)c1Cl

- IC50 (HCC827): < 100 nM
Compound: COCCN1CCC(C#Cc2c(Oc3ccc(NC(=O)c4ccnn(-c5ccc(F)cc5)c4=O)cc3F)ccnc2N)CC1

- IC50 [3]: 1.88 nM
- IC50 (A-431): > 1000 nM
- IC50 (NCI-H1975): 39.2 nM
Compound: Clc1ncccc1COCC1Cc2cn3ncnc(-c4cnn(C5CCNCC5)c4)c3c2C1 (stereo not drawn)

- IC50 [3]: 7.9 nM
- IC50 [2]: 6.4 nM
Compound: CNC(=O)c1ccccc1Nc1nc(Nc2ccc3c(c2)[C@@H](C)CNCC3)ncc1Cl

- IC50 [3]: 1.59 nM
- IC50 (A-431): > 1000 nM
- IC50 (NCI-H1975): 45.2 nM
Compound: c1cncc(COCC2Cc3cn4ncnc(-c5cnn(C6CCNCC6)c5)c4c3C2)c1 (stereo not drawn)

- IC50 [3]: 60 nM
- IC50 [2]: 40 nM
Compound: C[C@@H](Oc1cc(C(=O)Nc2ccc(=O)n(C)c2)nnc1N)c1c(Cl)ccc(F)c1Cl

- IC50 (HCC827): < 100 nM
Compound: CC(C)n1cc(C(=O)Nc2ccc(Oc3ccnc(N)c3C#CC(=O)N3CCOCC3)c(F)c2)c(=O)n(-c2ccc(F)cc2)c1=O

- IC50 [5]: 1620 nM
- IC50 (MCF7): 15700 nM
- IC50 (HT-29): 10400 nM
- IC50 (MDA-MB-231): 7930 nM
- IC50 (A549 [6]): 37000 nM
- IC50 (COLO 205): < 100 nM
- IC50 [2]: 6610 nM
Compound: Cc1ccc(C(=O)Nc2cccc(C(=O)/C=C/c3ccc(F)cc3)c2)cc1

- IC50 (HCC827): < 100 nM
Compound: CN1CCN(CC#Cc2c(Oc3ccc(NC(=O)c4ccnn(-c5ccc(F)cc5)c4=O)cc3F)ccnc2N)CC1
